Reference: patent US20090246169A1, “INDOLOPYRIDINES AS EG5 KINESIN MODULATORS” (priority 2006, published 2009)

tested on: RKO p21 colon adenocarcinoma cells, uninduced (proliferating); experiment: Alamar Blue cell viability assay, RKO p21 uninduced (proliferating); type: cell-based; settings: Homo sapiens; anti-proliferative/cytotoxic activity, 72 hours, without Ponasterone A; read-out: −log EC50 [mol/l] RKO p21 uninduced (proliferating) (converted)
Procedure: The anti-proliferative/cytotoxic activity of the compounds described herein can be tested on subclones of RKO human colon adenocarcinoma cells (Schmidt et al., Oncogene 19, 2423-2429; 2000) using the Alamar Blue cell viability assay (described in O'Brien et al. Eur J Biochem 267, 5421-5426, 2000). The compounds are dissolved as 10 mM solutions in DMSO and subsequently diluted in semi-logarithmic steps. DMSO dilutions are further diluted 1:100 into Dulbecco's modified Eagle's medium (DMEM) containing 10% fetal calf serum to a final concentration twice as much as the final concentration in the test. RKO subclones are seeded into 96 well flat bottom plates at a density of 4000 cells per well in a volume of 50 μl per well. 24 hours after seeding the 50 μl each of the compound dilutions in DMEM medium are added into each well of the 96 well plate. Each compound dilution is tested as triplicates. Wells containing untreated control cells are filled with 50 μl DMEM medium containing 1% DMSO. The cells are then incubated with the substances for 72 hours at 37° C. in a humidified atmosphere containing 5% carbon dioxide. To determine the viability of the cells, 10 μl of an Alamar Blue solution (Biosource) are added and the fluorescence is measured at an extinction of 544 nm and an emission of 590 nm. For the calculation of the cell viability the emission value from untreated cells is set as 100% viability and the emission rates of treated cells are set in relation to the values of untreated cells. Viabilities are expressed as % values. The Graphpad Prism program is used for the calculation of EC50 values for anti-proliferative/cytotoxic activity out of the obtained dose-response curves.
To determine the cell cycle specific mode of action, subclones of RKO colon adenocarcinoma cells (RKOp21 or RKOp27 as described by Schmidt et al. in Oncogene 19, 2423-2429; 2000) are seeded into 96 well flat bottom plates at a density of 16000 cells per well in a volume of 50 μl per well in DMEM growth medium with 10% FCS containing 10 μM Ponasterone A. 24 hours after seeding the 50 μl each of the compound dilutions in DMEM medium are added into each well of the 96-well plate. Each compound dilution is tested as triplicates. Wells containing untreated control cells are filled with 50 μl DMEM medium containing 1% DMSO. The cells are then incubated with the substances for 72 hours at 37° C. in a humidified atmosphere containing 5% carbon dioxide. To determine the viability of the cells, 10 μl of an Alamar Blue solution (Biosource) are added and the fluorescence is measured at an extinction of 544 nm and an emission of 590 nm. For the calculation of the cell viability the emission value from untreated cells is set as 100% viability and the emission rates of treated cells are set in relation to the values of untreated cells. Viabilities are expressed as % values. The Graphpad Prism program (GraphPad Software, Inc) is used for the calculation of EC50 values out of the obtained dose-response curves. Viability is compared of proliferating cells grown in the absence of the inducer Ponasterone A, versus viability of cells arrested by the expression of ectopic p27Kip1 induced by Ponasterone A.
Representative values for anti-proliferation/cytotoxicity [measured as −log EC50 (mol/l)] determined in the aforementioned assays follow from the following tables B1 and B2, in which the numbers of the compounds correspond to the numbers of the examples.

Which EC50 does the source give for `CNCCN1C(=O)N2[C@H](c3ccccc3)c3[nH]c4ccc(OC)cc4c3C[C@@]2(C)C1=O` (racemic) [Example 14, (3aSR,10RS)-6-Methoxy-3a-methyl-2-(2-methylamino-ethyl)-10-phenyl-3a,4,9,10-tetrahydro-2,9,10a-triaza-cyclopenta[b]fluorene-1,3-dione] here?
Its EC50 is at most 1000 nM.

With `COc1ccc2[nH]c3c(c2c1)C[C@@]1(C)C(=O)N(CCCN2CCN(C(C)=O)CC2)C(=O)N1[C@@H]3c1ccccc1` (racemic) [Example 69, (3aSR, 10RS)-2-[3-(4-Acetyl-piperazin-1-yl)-propyl]-6-methoxy-3a-methyl-10-phenyl-3a,4,9,10-tetra-hydro-2,9,10a-triaza-cyclo-penta[b]fluorene-1,3-dione] as the compound, how does the EC50 read?
Its EC50 is at most 1000 nM.

`C=CCN(C)CCCN1C(=O)N2[C@H](c3ccccc3)c3[nH]c4ccc(OC)cc4c3C[C@@]2(C)C1=O` (racemic) [Example 57, (3aSR, 10RS)-2-[3-(Allyl-methyl-amino)-propyl]-6-methoxy-3a-methyl-10-phenyl-3a,4,9,10-tetrahydro-2,9,10a-triaza-cyclopenta[b] fluorene-1,3-dione] was tested. Which EC50 did it give?
The EC50 was at most 1000 nM.

Which EC50 does the source give for `COc1ccc2[nH]c3c(c2c1)C[C@@]1(C)C(=O)N(CCCNC2CCC2)C(=O)N1[C@@H]3c1ccccc1` (racemic) [Example 72, (3aSR, 10RS)-2-(3-Cyclo-butylamino-propyl)-6-methoxy-3a-methyl-10-phenyl-3a,4,9,10-tetrahydro-2,9,10a-triaza-cyclopenta[b] fluorene-1,3-dione] here?
The EC50 was at most 1000 nM.

Which EC50 does the source give for `COc1ccc2[nH]c3c(c2c1)C[C@@]1(C)C(=O)N(CCCNCC2CC2)C(=O)N1[C@@H]3c1ccccc1` (racemic) [Example 74, (3aSR, 10RS)-2-[3-(Cyclo-propylmethyl-amino)-propyl]-6-methoxy-3a-methyl-10-phenyl-3a,4,9,10-tetrahydro-2,9,10a-triaza-cyclopenta[b] fluorene-1,3-dione] here?
Its EC50 is at most 1000 nM.

Which EC50 does the source give for `COc1ccc2[nH]c3c(c2c1)C[C@@]1(C)C(=O)N(CCCNC2CC2)C(=O)N1[C@@H]3c1ccccc1` (racemic) [Example 71, (3aSR, 10RS)-2-(3-Cyclo-propylamino-propyl)-6-methoxy-3a-methyl-10-phenyl-3a,4,9,10-tetrahydro-2,9,10a-triaza-cyclopenta[b] fluorene-1,3-dione] here?
The EC50 was at most 1000 nM.

For `COc1ccc2[nH]c3c(c2c1)C[C@@]1(C)C(=O)N(CCNC(C)C)C(=O)N1[C@@H]3c1ccccc1` (racemic) [Example 19, (3aSR,10RS)-2-(2-Isopropylamino-ethyl)-6-methoxy-3a-methyl-10-phenyl-3a,4,9,10-tetrahydro-2,9,10a-triaza-cyclopenta[b]fluorene-1,3-dione], which EC50 is on record?
Its EC50 is at most 1000 nM.

Which EC50 does the source give for `COc1ccc2[nH]c3c(c2c1)C[C@@]1(C)C(=O)N(CCCN2CCCCCC2)C(=O)N1[C@@H]3c1ccccc1` (racemic) [Example 78, (3aSR, 10RS)-2-(3-Azepan-1-yl-propyl)-6-methoxy-3a-methyl-10-phenyl-3a,4,9,10-tetrahydro-2,9,10a-triaza-cyclopenta[b]fluorene-1,3-dione] here?
The EC50 was at most 1000 nM.

With `CC[C@@]12Cc3c([nH]c4ccc(OC)cc34)[C@@H](c3ccccc3)N1C(=O)N(CCN(C)C)C2=O` (racemic) [Example 5, (3aSR,10RS)-2-(2-Dimethylamino-ethyl)-3a-ethyl-6-methoxy-10-phenyl-3a,4,9,10-tetrahydro-2,9,10a-triaza-cyclopenta[b]fluorene-1,3-dione] as the compound, how does the EC50 read?
Its EC50 is at most 1000 nM.

How did the EC50 turn out when `COc1ccc2[nH]c3c(c2c1)C[C@@]1(C)C(=O)N(CCNCCO)C(=O)N1[C@@H]3c1ccccc1` (racemic) [Example 26, (3aSR, 10RS)-2-[2-(2-Hydroxy-ethylamino)-ethyl]-6-methoxy-3a-methyl-10-phenyl-3a,4,9,10-tetrahydro-2,9,10a-triaza-cyclopenta[b] fluorene-1,3-dione] was run?
The EC50 was at most 1000 nM.
